Calls of active or inactive are those of the source. The calls are words filed in the database; no cut-off is given here.
Columns and labels:
[1] = system: Escherichia coli; experiment: Antibacterial activity against Escherichia coli MG1655 assessed as inhibition of bacterial growth incubated for 20 hrs by CLSI broth microdilution method; type: functional
[2] = system: Staphylococcus aureus; experiment: Antibacterial activity against Staphylococcus aureus ATCC 25923 assessed as inhibition of bacterial growth incubated for 20 hrs by CLSI broth microdilution method; type: functional
[3] = system: Bacillus subtilis; experiment: Antibacterial activity against Bacillus subtilis 168 assessed as inhibition of bacterial growth incubated for 20 hrs by CLSI broth microdilution method; type: functional
[4] = system: Staphylococcus aureus; experiment: Bactericidal activity against Staphylococcus aureus ATCC 25923 at 4 ug/ml incubated for 20 hrs in CAMHB followed by culturing onto CAMHA for 48 hrs by colony counting analysis; type: functional, organism-based; settings: dose 4.0 µg/ml, time 68.0 hrs
[5] = system: Bacillus subtilis; experiment: Bactericidal activity against Bacillus subtilis 168 at 4 ug/ml incubated for 20 hrs in CAMHB followed by culturing onto CAMHA for 48 hrs by colony counting analysis; type: functional, organism-based; settings: dose 4.0 µg/ml, time 68.0 hrs
[6] = Cytotoxicity against mouse 3T3-L1 cells assessed as cell viability at 25 ug/ml measured after 24 to 72 hrs by MTT assay relative to control; type: toxicity, cell-based; settings: at 25 µg/mL, time 24-72 hrs, read-out: Activity
[7] = system: Vero; experiment: (§1) Cytotoxicity against African green monkey Vero cells assessed as inhibition of cell growth at 50 ug/ml; type: toxicity, cell-based; settings: chlorocebus sabaeus, vero; dose 50 µg/ml
[8] = system: 3T3-L1; experiment: Cytotoxicity against mouse 3T3-L1 cells assessed as reduction in cell viability at 25 ug/ml measured after 24 to 72 hrs by MTT assay; type: toxicity, cell-based; settings: time 24-72 hrs, dose 25 µg/ml
[9] = system: 3T3-L1; experiment: Cytotoxicity against mouse 3T3-L1 cells assessed as reduction in cell viability at 12.5 ug/ml measured after 24 hrs by MTT assay; type: toxicity, cell-based; settings: 3t3-l1, 24 h, dose 12.5 µg/ml
[10] = system: Enterococcus faecium; experiment: Antibacterial activity against Enterococcus faecium assessed as inhibition of bacterial growth incubated for 20 hrs by CLSI broth microdilution method; type: functional
[11] = system: Streptococcus pneumoniae; experiment: Antibacterial activity against Streptococcus pneumoniae assessed as inhibition of bacterial growth incubated for 20 hrs by CLSI broth microdilution method; type: functional
[12] = system: Acinetobacter baumannii; experiment: Antibacterial activity against Acinetobacter baumannii assessed as inhibition of bacterial growth incubated for 20 hrs by CLSI broth microdilution method; type: functional
[13] = system: Acinetobacter baylyi; experiment: Antibacterial activity against Acinetobacter baylyi assessed as inhibition of bacterial growth incubated for 20 hrs by CLSI broth microdilution method; type: functional
[14] = system: Mycobacterium tuberculosis; experiment: Antibacterial activity against Mycobacterium tuberculosis H37Rv assessed as inhibition of bacterial growth at 20 uM; type: functional
[15] = system: Mycobacterium tuberculosis; experiment: Antibacterial activity against Mycobacterium tuberculosis H37Rv assessed as inhibition of bacterial growth; type: functional
[16] = as §1; type: toxicity, cell-based; settings: chlorocebus sabaeus, Vero cells, at 50 µg/mL
[17] = Induction of phenotypic changes in Bacillus subtilis 168 assessed as abundance of ghost cells at 4XMIC measured after 1 hr by phase contrast microscopic analysis; type: functional
[18] = system: Bacillus subtilis; experiment: Induction of phenotypic changes in Bacillus subtilis 168 assessed as bacterial population with localized swelling at 4XMIC measured after 1 hr by phase contrast microscopic analysis; type: functional
[19] = system: Bacillus subtilis; experiment: Induction of phenotypic changes in Bacillus subtilis 168 assessed as bacterial population with bulging phenotype at 4XMIC measured after 1 hr by phase contrast microscopic analysis; type: functional
[20] = system: Bacillus subtilis; experiment: Induction of phenotypic changes in Bacillus subtilis 168 assessed as disruption of peptidoglycan synthesis by measuring inconsistency in NADA stain distribution throughout the cell at 4XMIC measured after 60 mins by NADA staining based fluorescent microscopy; type: functional
[21] = system: Staphylococcus aureus; experiment: Antibacterial activity against Staphylococcus aureus ATCC 25923 assessed as inhibition of bacterial growth measured after repeated 30 day serial passage treatment by broth microdilution method; type: functional, organism-based

Row | Structure (SMILES) | MIC95 [1] | MIC95 [2] | MIC95 [3] | further results
1 | COc1cc2c(cc1OC)C[N+](Cc1cn(-c3ccc(C(=O)N(C)C)cc3)nn1)(Cc1cn(-c3ccc(C(=O)N(C)C)cc3)nn1)CC2 | > 128 µg/mL | > 128 µg/mL | > 128 µg/mL | –
2 | COc1cc2c(cc1OC)C[N+](Cc1cn(-c3ccc(COc4ccccc4)cc3)nn1)(Cc1cn(-c3ccc(COc4ccccc4)cc3)nn1)CC2 | > 128 µg/mL | 32 µg/mL | 32 µg/mL | –
3 | COc1ccc(-n2cc(C[N+]3(Cc4cn(-c5ccc(OC)cc5)nn4)CCc4cc(OC)c(OC)cc4C3)nn2)cc1 | > 128 µg/mL | > 128 µg/mL | > 128 µg/mL | –
4 | COc1cc2c(cc1OC)C[N+](Cc1cn(-c3ccccc3)nn1)(Cc1cn(-c3ccccc3)nn1)CC2 | > 128 µg/mL | > 128 µg/mL | – | –
5 | COc1cc2c(cc1OC)C[N+](Cc1cn(-c3ccc(-c4ccccc4)cc3)nn1)(Cc1cn(-c3ccc(-c4ccccc4)cc3)nn1)CC2 | > 128 µg/mL | 32 µg/mL | – | –
6 | COc1cc2c(cc1OC)C[N+](Cc1cn(-c3ccc(OCc4ccccc4)c(F)c3)nn1)(Cc1cn(-c3ccc(OCc4ccccc4)c(F)c3)nn1)CC2 | > 128 µg/mL | 4 µg/mL | 4 µg/mL | Activity [4]: Active; Activity [5]: Active; viability at 25 ug/ml [6]: > 85%; Activity [7]: Non-Toxic
7 | COc1cc2c(cc1OC)C[N+](Cc1cn(-c3ccoc3)nn1)(Cc1cn(-c3ccoc3)nn1)CC2 | > 128 µg/mL | > 128 µg/mL | > 128 µg/mL | –
8 | COc1cc2c(cc1OC)C[N+](Cc1cn(-c3cc(C(F)(F)F)cc(C(F)(F)F)c3)nn1)(Cc1cn(-c3cc(C(F)(F)F)cc(C(F)(F)F)c3)nn1)CC2 | > 128 µg/mL | 8 µg/mL | > 128 µg/mL | –
9 | COc1cc2c(cc1OC)C[N+](Cc1cn(-c3ccc(Cl)nc3Cl)nn1)(Cc1cn(-c3ccc(Cl)nc3Cl)nn1)CC2 | > 128 µg/mL | > 128 µg/mL | > 128 µg/mL | –
10 | COc1cc2c(cc1OC)C[N+](Cc1cn(-c3ccc(OCc4ccccc4)cc3F)nn1)(Cc1cn(-c3ccc(OCc4ccccc4)cc3F)nn1)CC2 | > 128 µg/mL | 4 µg/mL | 4 µg/mL | Activity [4]: Active; Activity [5]: Active; Activity [8]: Toxic
11 | COc1cc2c(cc1OC)C[N+](Cc1cn(-c3ccc4ccccc4c3)nn1)(Cc1cn(-c3ccc4ccccc4c3)nn1)CC2 | > 128 µg/mL | 32 µg/mL | 32 µg/mL | –
12 | COc1cccc(CC2c3cc(OC)c(OC)cc3CC[N+]2(Cc2cn(-c3ccc(C(C)(C)C)cc3)nn2)Cc2cn(-c3ccc(C(C)(C)C)cc3)nn2)c1 (centres undefined) | > 128 µg/mL | 4 µg/mL | – | Activity [9]: Toxic
13 | COc1cc2c(cc1OC)C[N+](Cc1cn(-c3ccc(C#N)cc3)nn1)(Cc1cn(-c3ccc(C#N)cc3)nn1)CC2 | > 128 µg/mL | > 128 µg/mL | > 128 µg/mL | –
14 | COc1cc2c(cc1OC)C(Cc1ccccc1)[N+](Cc1cn(-c3ccc(C(C)(C)C)cc3)nn1)(Cc1cn(-c3ccc(C(C)(C)C)cc3)nn1)CC2 (centres undefined) | > 128 µg/mL | 2 µg/mL | – | Activity [9]: Toxic
15 | COc1cc2c(cc1OC)C[N+](Cc1cn(-c3ccc(Cl)cc3)nn1)(Cc1cn(-c3ccc(Cl)cc3)nn1)CC2 | > 128 µg/mL | 32 µg/mL | 32 µg/mL | –
16 | COc1cc2c(cc1OC)C[N+](Cc1cn(-c3ccc([N+](=O)[O-])cc3)nn1)(Cc1cn(-c3ccc([N+](=O)[O-])cc3)nn1)CC2 | > 128 µg/mL | > 128 µg/mL | > 128 µg/mL | –
17 | COc1cc2c(cc1OC)C[N+](Cc1cn(-c3ccc(C(C)(C)C)cc3)nn1)(Cc1cn(-c3ccc(C(C)(C)C)cc3)nn1)CC2 | > 128 µg/mL | 4 µg/mL | 4 µg/mL | Activity [4]: Active; Activity [5]: Active; MIC95 [10]: 8 µg/mL; MIC95 [11]: 8 µg/mL; MIC95 [12]: 128 µg/mL; MIC95 [13]: 128 µg/mL; inhibition at 20 µM [14]: > 90%; MIC [15]: 6 µg/mL; Activity [8]: Toxic; inhibition at 50 ug/ml [16]: 89%; Activity [17]: >50%; Activity [18]: 20%; Activity [19]: 10%; Activity [20]: Active; Activity [21]: Active
18 | COc1cc2c(cc1OC)C[N+](Cc1cn(-c3ccc(C(F)(F)F)cc3C(F)(F)F)nn1)(Cc1cn(-c3ccc(C(F)(F)F)cc3C(F)(F)F)nn1)CC2 | > 128 µg/mL | 32 µg/mL | 32 µg/mL | –

— ChEMBL document CHEMBL5131487, “Synthesis and biological evaluation of tetrahydroisoquinoline-derived antibacterial compounds” (Bioorg Med Chem, 2022)
